Measurements as given in BigSolDB 2.1.

O=[N+]([O-])c1cccc2ccccc12
solubility (mole fraction)
Conditions | 273.15 K | 278.15 K | 283.15 K | 288.15 K | 293.15 K | 298.15 K | 303.15 K | 308.15 K
in acetone | 0.145 | 0.181 | 0.232 | 0.277 | 0.344 | 0.426 | 0.508 | 0.603
in acetonitrile | 0.0535 | 0.0739 | 0.104 | 0.149 | 0.225 | 0.322 | 0.433 | 0.591
in cyclohexane | – | 0.00743 | 0.0104 | 0.0134 | 0.0177 | 0.0261 | 0.0382 | 0.0532
in dichloromethane | 0.241 | 0.283 | 0.328 | 0.384 | 0.434 | 0.5 | 0.554 | 0.637
in ethanol | 0.00915 | 0.0111 | 0.0138 | 0.0173 | 0.0218 | 0.0281 | 0.0366 | 0.0467
in ethyl acetate | 0.143 | 0.172 | 0.213 | 0.254 | 0.31 | 0.382 | 0.472 | 0.566
in isobutanol | 0.00604 | 0.00768 | 0.00962 | 0.0123 | 0.0163 | 0.0219 | 0.0306 | 0.0424
in isopropanol | 0.00588 | 0.00782 | 0.00957 | 0.0123 | 0.0163 | 0.022 | 0.0301 | 0.0423
in methanol | 0.00637 | 0.00811 | 0.00991 | 0.0124 | 0.0155 | 0.0204 | 0.027 | 0.0353
in methyl acetate | 0.135 | 0.172 | 0.21 | 0.26 | 0.32 | 0.406 | 0.487 | 0.59
in n-butanol | 0.0111 | 0.0138 | 0.0169 | 0.0214 | 0.0274 | 0.0359 | 0.0493 | 0.0679
in n-propanol | 0.0094 | 0.0118 | 0.0143 | 0.0176 | 0.0228 | 0.03 | 0.0409 | 0.058
